# Assay: Rancimat oxidative stability test of peanut oil
# Details: Rancimat 100° C., 20 cc/min air, average of duplicate
# Description: The procedures described in Examples 1, 2 and 3 were used to prepare cocoa extracts which were manipulated further to produce two fractions from gel permeation chromatography. These two fractions are actually combined fractions A through C, and D and E (See FIG. 1) whose antioxidant properties were compared against the synthetic antioxidants BHA and BHT.
# Peanut Oil was pressed from unroasted peanuts after the skins were removed. Each test compound was spiked into the oil at two levels about 100 ppm and about 20 ppm, with the actual levels given in Table 7.50 μL of methanol solubilized antioxidant was added to each sample to aid in dispersion of the antioxidant. A control sample was prepared with 50 μL of methanol containing no antioxidant.
# The samples were evaluated in duplicate, for oxidative stability using the Rancimat stability test at 100° C. and 20 cc/min of air. Experimental parameters were chosen to match those used with the Active Oxygen Method (AOM) or Swift Stability Test (Van Oosten et al., 1981). Results are reported in Table 8 as hours required to reach a peroxide level of 100 meq.
# [1] = 20 ppm (actual 20-24 ppm, Table 7)
# [2] = 100 ppm (actual 100-120 ppm, Table 7)
Compound,Oxidative stability of peanut oil: hours required to reach a peroxide level of 100 meq [1] [h],Oxidative stability of peanut oil: hours required to reach a peroxide level of 100 meq [2] [h]
"COc1ccc(O)c(C(C)(C)C)c1 [BHA, Butylated Hydroxyanisole]",13.5 ± 2.1,14.0 ± 1.4
"Cc1cc(C(C)(C)C)c(O)c(C(C)(C)C)c1 [BHT, Butylated Hydroxytoluene]",16.5 ± 2.1,12.5 ± 2.1
